Laboratory results reported in the NIST ThermoML archive (doi:10.1016/j.jct.2015.03.017).

Assay: mn = molality of the nth substance listed, in mol/kg
Settings: 74.66 kPa, Liquid; for speed of sound: Frequency=3 MHz, Sing-around technique in a fixed-path interferometer; for mass density: Vibrating tube method

CCCC[N+](CCCC)(CCCC)CCCC.[Br-] [tetrabutylammonium bromide] + O
Settings	mass density, 278.15 K [kg/m3]	mass density, 283.15 K [kg/m3]	mass density, 288.15 K [kg/m3]	mass density, 293.15 K [kg/m3]	speed of sound, 278.15 K [m/s]	speed of sound, 283.15 K [m/s]	speed of sound, 288.15 K [m/s]	speed of sound, 293.15 K [m/s]	speed of sound, 298.15 K [m/s]
m1 = 0.01142	1000.27	999.991	999.38	998.474	1432	1452.5	1470.9	1487.1	1501.3
m1 = 0.02179	1000.55	1000.26	999.637	998.721	–	–	–	–	–
m1 = 0.02564	1000.66	1000.36	999.733	998.812	1436.7	1457.5	1475.5	1491.3	1504.8
m1 = 0.03767	1000.97	1000.66	1000.02	999.087	1439.6	1459.7	1477.4	1492.9	1506.4
m1 = 0.0459	1001.19	1000.87	1000.23	999.287	1442.7	1462.5	1480.1	1495.5	1508.9
m1 = 0.05856	1001.55	1001.21	1000.54	999.585	1446.1	1465.7	1482.9	1498.1	1511.7
m1 = 0.0711	1001.86	1001.51	1000.83	999.857	1450	1469.4	1486.4	1501.3	1514.3
m1 = 0.07968	1002.09	1001.73	1001.04	1000.05	1453	1472.2	1489.1	1504	1516.9
m1 = 0.09066	1002.42	1002.04	1001.33	1000.34	1455.7	1474.4	1491	1505.4	1517.9
m1 = 0.1003	1002.67	1002.28	1001.54	1000.54	1458	1476.6	1493	1507.3	1519.7

CCC(C)[N+](C(C)CC)(C(C)CC)C(C)CC.[Br-] (stereo unspecified) [tetra-sec-butyl ammonium bromide] + O
Settings	mass density, 278.15 K [kg/m3]	mass density, 283.15 K [kg/m3]	mass density, 288.15 K [kg/m3]	mass density, 293.15 K [kg/m3]	speed of sound, 278.15 K [m/s]	speed of sound, 283.15 K [m/s]	speed of sound, 288.15 K [m/s]	speed of sound, 293.15 K [m/s]	speed of sound, 298.15 K [m/s]
m1 = 0.009699	1000.43	1000.15	999.553	998.653	1429.9	1450.7	1469	1485.1	1499
m1 = 0.01981	1000.92	1000.64	1000.03	999.127	1432.6	1453.1	1471.2	1487.4	1500.9
m1 = 0.03014	–	–	–	–	1435.2	1455.5	1473.4	1489.2	1503
m1 = 0.04066	1002	1001.68	1001.04	1000.12	1438.2	1458.2	1475.9	1491.5	1505.2
m1 = 0.04983	1002.49	1002.14	1001.5	1000.59	1440.2	1460.1	1477.6	1493.1	1506.5
m1 = 0.0598	1003.02	1002.66	1002	1001.08	1443.3	1463	1480.4	1495.4	1508.3
m1 = 0.07027	1003.58	1003.21	1002.55	1001.63	1445.7	1465.7	1483.2	1497.7	1510.9
m1 = 0.07997	1004.11	1003.75	1003.08	1002.12	1448.5	1468.4	1485	1499.7	1512
m1 = 0.08984	1004.68	1004.31	1003.61	1002.64	1451.4	1471.3	1488	1501.6	1514.2
m1 = 0.1018	1005.32	1004.97	1004.26	1003.28	1454.9	1474.9	1490.9	1504	1516

CCCC[N+](CCCC)(CC(C)C)CC(C)C.[Br-] [N-butyl-N,N-bis(2-methylpropyl)-1-butanaminium bromide] + O
Settings	mass density, 278.15 K [kg/m3]	mass density, 283.15 K [kg/m3]	mass density, 288.15 K [kg/m3]	mass density, 293.15 K [kg/m3]	speed of sound, 278.15 K [m/s]	speed of sound, 283.15 K [m/s]	speed of sound, 288.15 K [m/s]	speed of sound, 293.15 K [m/s]	speed of sound, 298.15 K [m/s]
m1 = 0.01065	1000.5	1000.23	999.628	998.731	1431.7	1452	1469.2	1485.3	1499.3
m1 = 0.01998	1000.98	1000.71	1000.11	999.207	1433.3	1453.7	1471.8	1487.8	1501.8
m1 = 0.0287	1001.44	1001.16	1000.55	999.654	1435.3	1455.5	1473.4	1489.1	1502.9
m1 = 0.03816	1001.92	1001.65	1001.04	1000.13	–	–	–	–	–
m1 = 0.04991	1002.55	1002.27	1001.65	1000.74	1440.2	1460	1477.6	1493	1506.5
m1 = 0.05935	1003.05	1002.75	1002.13	1001.22	1443	1462.6	1479.9	1495.1	1508.5
m1 = 0.06884	1003.54	1003.25	1002.62	1001.71	1446.3	1465.8	1483.1	1498.3	1511.6
m1 = 0.08078	1004.18	1003.88	1003.25	1002.33	1449	1468.1	1485.2	1500.2	1513.4
m1 = 0.0922	1004.77	1004.47	1003.83	1002.91	1451.4	1470.1	1486.8	1501.5	1514.3
m1 = 0.1044	1005.43	1005.11	1004.46	1003.53	1453.6	1472.4	1488.9	1503.4	1516

CC(C)C[N+](CC(C)C)(CC(C)C)CC(C)C.[Br-] [tetra-iso-butyl ammonium bromide] + O
Settings	mass density, 278.15 K [kg/m3]	mass density, 283.15 K [kg/m3]	mass density, 288.15 K [kg/m3]	mass density, 293.15 K [kg/m3]	speed of sound, 278.15 K [m/s]	speed of sound, 283.15 K [m/s]	speed of sound, 288.15 K [m/s]	speed of sound, 293.15 K [m/s]	speed of sound, 298.15 K [m/s]
m1 = 0.01022	1000.51	1000.24	999.634	998.735	–	–	–	–	–
m1 = 0.02021	1001.05	1000.77	1000.16	999.258	1434	1454.4	1472.5	1488.5	1502.6
m1 = 0.02983	1001.57	1001.29	1000.67	999.758	1437	1457	1475	1490.5	1503.3
m1 = 0.03847	1002.04	1001.75	1001.12	1000.21	1438.5	1458.5	1476.2	1491.8	1505.5
m1 = 0.04829	1002.57	1002.27	1001.63	1000.71	1441.3	1461.2	1478.9	1494.5	1508.1
m1 = 0.05621	1002.99	1002.68	1002.04	1001.11	1443.4	1463.6	1480.5	1495.7	1509.7
m1 = 0.06888	1003.67	1003.34	1002.7	1001.76	1447	1466.5	1483.8	1498.9	1512.2
m1 = 0.07666	1004.08	1003.76	1003.1	1002.16	1448.2	1467.5	1484.6	1499.7	1512.9
m1 = 0.08623	1004.6	1004.26	1003.6	1002.64	1451.5	1469.4	1486.2	1500.9	1513.8
m1 = 0.1002	1005.35	1005	1004.33	1003.37	1453.7	1472.5	1489.2	1503.9	1516.7

CCCC[N+](CCCC)(C(C)CC)C(C)CC.[Br-] (stereo unspecified) [N-butyl-N,N-bis(1-methylpropyl)-1-butanaminium bromide] + O
Settings	mass density, 278.15 K [kg/m3]	mass density, 283.15 K [kg/m3]	mass density, 288.15 K [kg/m3]	mass density, 293.15 K [kg/m3]	speed of sound, 278.15 K [m/s]	speed of sound, 283.15 K [m/s]	speed of sound, 288.15 K [m/s]	speed of sound, 293.15 K [m/s]	speed of sound, 298.15 K [m/s]
m1 = 0.01181	1000.58	1000.3	999.698	998.799	1431.4	1452	1470.2	1486.2	1500.2
m1 = 0.02026	1001.03	1000.75	1000.13	999.231	1433.3	1453.8	1472	1488	1502.1
m1 = 0.03102	1001.6	1001.32	1000.7	999.791	1435.8	1456.1	1474.1	1489.9	1503.9
m1 = 0.04017	1002.1	1001.81	1001.19	1000.28	1438.2	1458.3	1476	1491.6	1505.3
m1 = 0.05043	1002.66	1002.36	1001.73	1000.81	1440	1459.8	1477.4	1492.9	1506.4
m1 = 0.0598	1003.17	1002.87	1002.24	1001.32	1442.6	1462.2	1479.5	1494.8	1508.4
m1 = 0.06968	1003.71	1003.41	1002.76	1001.84	1445	1464.4	1481.6	1496.6	1509.9
m1 = 0.08191	1004.37	1004.06	1003.42	1002.5	1447.4	1466.7	1483.7	1498.7	1511.8
m1 = 0.09038	1004.85	1004.53	1003.89	1002.96	1450.6	1469.6	1486.4	1501.1	1514
m1 = 0.1036	1005.56	1005.25	1004.59	1003.66	1453.5	1472.2	1488.9	1503.7	1516.5
